Values of other authors in patent US20100087382A1, “Inhibitors of Hepatitis C NS3 Protease” (BOEHRINGER INGELHEIM INTERNATIONAL GMBH, priority 2007, published 2010).
Like-named read-outs stand apart in the source and are kept apart here.

Experiments:
hepatitis C virus [1] = conditions: two day clinical trial, patients infected with hepatitis C virus
hepatitis C virus [2] = conditions: 28- and 14-day clinical trials, in combination with pegylated interferon with or without ribavirin, during treatment

SMILES	viral load in patients (hepatitis C virus [1])	viral load in patients (hepatitis C virus [2])
COc1ccc2c(O[C@@H]3C[C@H]4C(=O)N[C@]5(C(=O)O)C[C@H]5/C=C\CCCCC[C@H](NC(=O)OC5CCCC5)C(=O)N4C3)cc(-c3csc(NC(C)C)n3)nc2c1 [BILN 2061]	effective in rapidly reducing viral loads	
CCC[C@H](NC(=O)[C@@H]1[C@H]2CCC[C@H]2CN1C(=O)[C@@H](NC(=O)[C@@H](NC(=O)c1cnccn1)C1CCCCC1)C(C)(C)C)C(=O)C(=O)NC1CC1 [VX-950]		rapidly decreased to undetectable levels
